Assay results as given in publication PMC3602154 (PLoS ONE, 2013).

Tests used:
5-HT1B = 5-HT1B (Homo sapiens, UniProt P28222); experiment: PDSP radioligand binding, serotonin receptor 5-HT1B
From the text: (§1) [17] and http://pdsp.med.unc.edu/UNC-CH%20Protocol%20Book.pdf.

5-HT1D = 5-HT1D (Homo sapiens, UniProt P28221); experiment: PDSP radioligand binding, serotonin receptor 5-HT1D
From the text: as §1

5-ht5a = 5-ht5a (Homo sapiens, UniProt P47898); experiment: PDSP radioligand binding, serotonin receptor 5-HT5
From the text: as §1

5-HT6 = 5-HT6 (Homo sapiens, UniProt P50406); experiment: PDSP radioligand binding, serotonin receptor 5-HT6
From the text: as §1

A2B4 = A2B4 (Rattus norvegicus, UniProt P12389+P12392); experiment: PDSP radioligand binding, nicotinic receptor α2 ß4
From the text: as §1

A4B2 = A4B2 (Rattus norvegicus, UniProt P09483+P12390); experiment: PDSP radioligand binding, nicotinic receptor α4 ß2
From the text: as §1

Alpha2A = target: T1, Alpha2A (Homo sapiens, UniProt P08913); experiment: PDSP radioligand binding, adrenoceptor α2A
T1 sequence (P08913 1-465): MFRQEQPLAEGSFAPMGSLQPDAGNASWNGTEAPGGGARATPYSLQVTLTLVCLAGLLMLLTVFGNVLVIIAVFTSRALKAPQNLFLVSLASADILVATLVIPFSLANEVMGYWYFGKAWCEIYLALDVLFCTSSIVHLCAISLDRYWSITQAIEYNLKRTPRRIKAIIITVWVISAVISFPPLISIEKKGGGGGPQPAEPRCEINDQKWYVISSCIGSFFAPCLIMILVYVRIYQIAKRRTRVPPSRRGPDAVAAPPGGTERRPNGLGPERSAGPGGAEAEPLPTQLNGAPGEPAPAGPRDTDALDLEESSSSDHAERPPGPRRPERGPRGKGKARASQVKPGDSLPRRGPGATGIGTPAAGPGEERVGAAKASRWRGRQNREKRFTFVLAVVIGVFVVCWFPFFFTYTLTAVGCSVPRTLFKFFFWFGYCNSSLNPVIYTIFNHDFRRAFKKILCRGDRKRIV
From the text: as §1

Alpha2B = target: T2, Alpha2B (Homo sapiens, UniProt P18089); experiment: PDSP radioligand binding, adrenoceptor α2B
T2 sequence (P18089 1-450): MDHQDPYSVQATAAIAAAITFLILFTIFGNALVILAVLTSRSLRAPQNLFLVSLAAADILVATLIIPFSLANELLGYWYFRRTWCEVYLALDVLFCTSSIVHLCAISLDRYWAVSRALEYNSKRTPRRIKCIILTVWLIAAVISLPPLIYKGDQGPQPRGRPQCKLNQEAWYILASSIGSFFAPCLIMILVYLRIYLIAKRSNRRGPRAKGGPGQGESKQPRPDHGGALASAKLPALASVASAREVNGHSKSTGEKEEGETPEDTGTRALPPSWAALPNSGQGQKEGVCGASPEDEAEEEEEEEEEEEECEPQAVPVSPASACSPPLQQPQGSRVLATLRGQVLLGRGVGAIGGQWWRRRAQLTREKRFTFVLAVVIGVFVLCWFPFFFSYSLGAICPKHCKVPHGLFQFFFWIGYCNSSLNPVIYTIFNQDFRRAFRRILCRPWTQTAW
From the text: as §1

CB2 = CB2 (Homo sapiens, UniProt P34972); experiment: PDSP radioligand binding, cannabinoid CB-2
From the text: as §1

D1 = D1 (Homo sapiens, UniProt P21728); experiment: PDSP radioligand binding, dopamine receptor D1
From the text: as §1

D2 = D2 (Homo sapiens, UniProt P14416); experiment: PDSP radioligand binding, dopamine receptor D2
From the text: as §1

D4 = target: T3, D4 (Homo sapiens, UniProt P21917); experiment: PDSP radioligand binding, dopamine receptor D4
T3 sequence (P21917 1-419): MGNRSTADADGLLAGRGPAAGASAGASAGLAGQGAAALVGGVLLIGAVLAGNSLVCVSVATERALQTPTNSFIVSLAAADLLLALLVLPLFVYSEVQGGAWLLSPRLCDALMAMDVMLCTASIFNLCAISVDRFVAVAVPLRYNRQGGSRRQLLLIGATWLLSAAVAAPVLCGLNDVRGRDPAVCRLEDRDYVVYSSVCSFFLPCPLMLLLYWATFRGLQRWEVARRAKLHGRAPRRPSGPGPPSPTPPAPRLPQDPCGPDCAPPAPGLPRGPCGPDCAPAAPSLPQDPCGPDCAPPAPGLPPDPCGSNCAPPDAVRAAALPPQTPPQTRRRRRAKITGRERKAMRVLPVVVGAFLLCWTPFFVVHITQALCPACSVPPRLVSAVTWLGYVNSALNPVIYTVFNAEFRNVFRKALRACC
From the text: as §1

DOR = DOR (Homo sapiens, UniProt P41143); experiment: PDSP radioligand binding, opioid receptor DOR
From the text: as §1

GABAB = GABAB (Homo sapiens, UniProt Q9UBS5); experiment: PDSP radioligand binding, GABA-B
From the text: as §1

H1 = H1 (Homo sapiens, UniProt P35367); experiment: PDSP radioligand binding, histamine receptor H1
From the text: as §1

M2 = target: T4, M2 (Homo sapiens, UniProt P08172); experiment: PDSP radioligand binding, muscarinic receptor M2
T4 sequence (P08172 1-466): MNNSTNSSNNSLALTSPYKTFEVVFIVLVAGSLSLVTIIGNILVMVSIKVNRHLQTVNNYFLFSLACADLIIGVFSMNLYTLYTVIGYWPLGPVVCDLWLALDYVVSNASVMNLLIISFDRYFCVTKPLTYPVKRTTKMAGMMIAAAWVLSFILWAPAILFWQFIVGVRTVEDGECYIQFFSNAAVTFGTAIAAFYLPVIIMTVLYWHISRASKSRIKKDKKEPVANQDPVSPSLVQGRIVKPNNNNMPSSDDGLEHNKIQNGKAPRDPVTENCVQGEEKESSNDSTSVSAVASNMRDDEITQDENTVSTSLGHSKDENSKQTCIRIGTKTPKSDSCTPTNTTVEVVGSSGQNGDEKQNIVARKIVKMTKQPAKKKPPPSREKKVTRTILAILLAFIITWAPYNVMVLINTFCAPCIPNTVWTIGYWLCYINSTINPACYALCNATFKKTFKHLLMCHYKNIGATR
From the text: as §1

MOR = MOR (Homo sapiens, UniProt P35372); experiment: PDSP radioligand binding, opioid receptor MOR
From the text: as §1

PBR = PBR (Homo sapiens, UniProt P30536); experiment: PDSP radioligand binding, peripheral benzodiazepine receptor
From the text: as §1

Sigma1 = Sigma1 (Homo sapiens, UniProt Q99720); experiment: PDSP radioligand binding, Sigma1
From the text: as §1

Chain of Sigma1 (Q99720 whole entry): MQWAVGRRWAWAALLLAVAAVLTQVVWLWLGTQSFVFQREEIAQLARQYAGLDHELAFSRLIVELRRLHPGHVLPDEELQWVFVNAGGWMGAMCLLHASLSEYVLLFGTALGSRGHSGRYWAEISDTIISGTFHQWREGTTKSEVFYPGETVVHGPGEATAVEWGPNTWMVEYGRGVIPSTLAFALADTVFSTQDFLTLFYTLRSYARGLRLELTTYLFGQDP
Chain of MOR (P35372 whole entry): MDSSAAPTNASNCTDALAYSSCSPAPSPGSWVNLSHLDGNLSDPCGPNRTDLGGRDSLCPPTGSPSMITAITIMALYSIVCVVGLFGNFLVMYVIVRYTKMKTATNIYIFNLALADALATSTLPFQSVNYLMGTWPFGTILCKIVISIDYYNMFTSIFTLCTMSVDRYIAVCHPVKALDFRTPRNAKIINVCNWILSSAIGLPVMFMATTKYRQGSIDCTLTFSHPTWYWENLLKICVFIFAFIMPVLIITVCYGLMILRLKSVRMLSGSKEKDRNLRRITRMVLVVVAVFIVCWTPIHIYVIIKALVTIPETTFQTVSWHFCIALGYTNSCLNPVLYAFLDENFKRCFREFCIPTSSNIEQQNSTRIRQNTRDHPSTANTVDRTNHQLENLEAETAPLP
Chain of GABAB (Q9UBS5 15-961 limits assumed): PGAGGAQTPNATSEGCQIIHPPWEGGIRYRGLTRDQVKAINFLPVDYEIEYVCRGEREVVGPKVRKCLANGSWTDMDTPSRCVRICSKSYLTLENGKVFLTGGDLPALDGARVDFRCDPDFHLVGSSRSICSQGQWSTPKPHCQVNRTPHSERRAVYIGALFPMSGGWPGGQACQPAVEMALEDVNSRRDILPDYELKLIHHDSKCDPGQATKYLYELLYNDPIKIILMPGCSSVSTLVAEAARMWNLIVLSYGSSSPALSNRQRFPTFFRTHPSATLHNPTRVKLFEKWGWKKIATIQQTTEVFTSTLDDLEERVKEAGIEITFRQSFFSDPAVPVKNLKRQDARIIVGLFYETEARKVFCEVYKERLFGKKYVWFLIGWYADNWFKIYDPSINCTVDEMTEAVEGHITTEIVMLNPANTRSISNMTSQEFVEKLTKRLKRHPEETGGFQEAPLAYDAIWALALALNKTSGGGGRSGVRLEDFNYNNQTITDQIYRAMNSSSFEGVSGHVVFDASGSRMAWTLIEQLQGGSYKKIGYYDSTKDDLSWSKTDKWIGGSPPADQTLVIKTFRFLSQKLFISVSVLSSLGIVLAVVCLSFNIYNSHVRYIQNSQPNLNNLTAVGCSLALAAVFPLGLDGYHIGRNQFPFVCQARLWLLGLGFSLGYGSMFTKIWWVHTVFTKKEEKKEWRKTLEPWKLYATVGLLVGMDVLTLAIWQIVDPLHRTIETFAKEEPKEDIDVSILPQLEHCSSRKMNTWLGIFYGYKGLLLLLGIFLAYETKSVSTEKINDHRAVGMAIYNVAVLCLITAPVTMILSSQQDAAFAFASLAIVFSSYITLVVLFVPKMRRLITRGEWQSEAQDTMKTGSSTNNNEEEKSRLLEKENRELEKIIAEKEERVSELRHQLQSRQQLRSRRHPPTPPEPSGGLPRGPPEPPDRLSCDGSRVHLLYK
Chain of GABAB (O75899 42-941 partner): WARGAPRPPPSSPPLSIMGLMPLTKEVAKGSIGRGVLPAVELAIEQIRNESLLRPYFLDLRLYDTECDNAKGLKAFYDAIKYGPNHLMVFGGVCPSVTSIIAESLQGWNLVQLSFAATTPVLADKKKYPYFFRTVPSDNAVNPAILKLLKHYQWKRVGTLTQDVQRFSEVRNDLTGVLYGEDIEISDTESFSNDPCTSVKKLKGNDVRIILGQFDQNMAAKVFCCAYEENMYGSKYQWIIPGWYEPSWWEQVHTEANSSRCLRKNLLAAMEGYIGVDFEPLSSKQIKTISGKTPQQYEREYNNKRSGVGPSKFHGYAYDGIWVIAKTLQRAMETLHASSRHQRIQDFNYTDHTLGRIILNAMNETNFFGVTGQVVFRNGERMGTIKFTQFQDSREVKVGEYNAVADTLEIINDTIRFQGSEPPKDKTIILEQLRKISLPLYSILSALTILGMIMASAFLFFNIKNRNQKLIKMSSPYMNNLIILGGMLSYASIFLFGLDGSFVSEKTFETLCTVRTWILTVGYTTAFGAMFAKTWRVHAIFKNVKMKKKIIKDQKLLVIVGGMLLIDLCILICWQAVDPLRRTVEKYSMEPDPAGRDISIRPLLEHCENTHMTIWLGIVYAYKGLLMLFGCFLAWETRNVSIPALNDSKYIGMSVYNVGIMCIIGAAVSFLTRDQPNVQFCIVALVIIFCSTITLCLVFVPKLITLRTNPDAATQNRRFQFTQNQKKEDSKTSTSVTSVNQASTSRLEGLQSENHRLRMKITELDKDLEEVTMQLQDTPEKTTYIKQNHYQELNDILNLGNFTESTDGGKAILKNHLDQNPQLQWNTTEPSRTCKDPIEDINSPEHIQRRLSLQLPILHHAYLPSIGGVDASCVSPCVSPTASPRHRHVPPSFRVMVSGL
Chain of 5-ht5a (P47898 whole entry, species assumed): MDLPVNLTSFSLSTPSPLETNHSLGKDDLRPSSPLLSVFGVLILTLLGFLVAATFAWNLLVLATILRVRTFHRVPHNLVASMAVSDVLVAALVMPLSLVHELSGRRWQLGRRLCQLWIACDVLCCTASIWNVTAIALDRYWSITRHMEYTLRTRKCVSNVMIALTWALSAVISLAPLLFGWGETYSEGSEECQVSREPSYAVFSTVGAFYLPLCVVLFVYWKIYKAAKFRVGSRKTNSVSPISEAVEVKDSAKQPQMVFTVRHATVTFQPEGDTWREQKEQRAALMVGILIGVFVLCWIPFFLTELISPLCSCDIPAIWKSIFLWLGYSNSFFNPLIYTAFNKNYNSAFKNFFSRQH
Chain of 5-HT6 (P50406 whole entry, species assumed): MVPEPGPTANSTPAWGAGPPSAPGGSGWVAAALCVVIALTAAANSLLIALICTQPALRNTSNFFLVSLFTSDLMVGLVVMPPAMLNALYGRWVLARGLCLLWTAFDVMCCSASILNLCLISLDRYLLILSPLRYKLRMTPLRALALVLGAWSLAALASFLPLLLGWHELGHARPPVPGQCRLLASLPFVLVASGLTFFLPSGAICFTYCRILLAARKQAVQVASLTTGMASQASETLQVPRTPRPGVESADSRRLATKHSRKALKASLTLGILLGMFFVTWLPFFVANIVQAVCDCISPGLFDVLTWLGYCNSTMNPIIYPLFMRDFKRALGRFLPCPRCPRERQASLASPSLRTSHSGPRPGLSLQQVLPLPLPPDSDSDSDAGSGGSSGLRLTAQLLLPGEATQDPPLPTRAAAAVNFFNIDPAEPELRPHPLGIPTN
Chain of CB2 (P34972 whole entry, species assumed): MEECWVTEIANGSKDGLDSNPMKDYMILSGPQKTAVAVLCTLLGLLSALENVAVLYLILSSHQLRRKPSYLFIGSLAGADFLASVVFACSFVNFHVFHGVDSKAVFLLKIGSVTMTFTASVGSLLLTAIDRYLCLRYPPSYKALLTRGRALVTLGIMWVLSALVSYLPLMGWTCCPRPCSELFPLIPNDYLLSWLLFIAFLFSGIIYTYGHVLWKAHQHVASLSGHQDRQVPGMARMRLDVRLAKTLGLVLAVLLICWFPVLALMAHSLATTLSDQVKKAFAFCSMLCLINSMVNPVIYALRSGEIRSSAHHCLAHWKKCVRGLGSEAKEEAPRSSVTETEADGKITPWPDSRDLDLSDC
Chain of D2 (P14416 whole entry): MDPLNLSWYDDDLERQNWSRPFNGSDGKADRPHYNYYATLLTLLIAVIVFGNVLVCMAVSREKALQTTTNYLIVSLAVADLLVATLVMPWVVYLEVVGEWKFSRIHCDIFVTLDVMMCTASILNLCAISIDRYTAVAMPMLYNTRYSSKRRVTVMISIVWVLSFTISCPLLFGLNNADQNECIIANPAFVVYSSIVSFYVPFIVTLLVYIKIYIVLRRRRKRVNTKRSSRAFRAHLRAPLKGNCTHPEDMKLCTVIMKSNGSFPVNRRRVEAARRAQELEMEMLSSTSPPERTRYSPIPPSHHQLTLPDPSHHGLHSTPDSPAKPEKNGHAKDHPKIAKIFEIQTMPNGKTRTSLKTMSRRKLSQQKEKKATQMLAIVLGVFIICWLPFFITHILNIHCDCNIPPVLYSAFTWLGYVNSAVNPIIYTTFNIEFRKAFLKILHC
Chain of D1 (P21728 whole entry): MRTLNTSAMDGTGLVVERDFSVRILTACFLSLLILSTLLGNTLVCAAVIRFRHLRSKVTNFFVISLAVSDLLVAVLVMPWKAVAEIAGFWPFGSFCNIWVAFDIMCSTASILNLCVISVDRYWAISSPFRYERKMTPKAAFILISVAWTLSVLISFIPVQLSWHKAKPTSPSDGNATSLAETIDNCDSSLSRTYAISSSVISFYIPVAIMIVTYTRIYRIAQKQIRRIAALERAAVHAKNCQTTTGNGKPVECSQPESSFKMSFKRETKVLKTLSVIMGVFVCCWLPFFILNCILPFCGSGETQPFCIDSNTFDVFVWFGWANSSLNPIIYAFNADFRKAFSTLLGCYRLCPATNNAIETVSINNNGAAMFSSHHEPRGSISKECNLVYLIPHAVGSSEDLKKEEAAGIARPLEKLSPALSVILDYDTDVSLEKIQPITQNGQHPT
Chain of DOR (P41143 whole entry): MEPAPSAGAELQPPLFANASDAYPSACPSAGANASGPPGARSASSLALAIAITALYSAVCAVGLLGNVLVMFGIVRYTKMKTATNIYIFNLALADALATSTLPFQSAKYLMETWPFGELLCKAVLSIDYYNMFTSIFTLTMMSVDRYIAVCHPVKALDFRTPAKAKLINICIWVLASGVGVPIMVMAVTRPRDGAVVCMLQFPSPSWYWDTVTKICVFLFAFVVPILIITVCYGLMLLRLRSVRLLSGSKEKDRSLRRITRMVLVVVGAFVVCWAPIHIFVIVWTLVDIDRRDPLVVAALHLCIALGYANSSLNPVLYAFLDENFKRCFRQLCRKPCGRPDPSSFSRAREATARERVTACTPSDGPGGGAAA

SMILES	Ki (5-HT1B)	Ki (5-HT1D)	Ki (5-ht5a)	Ki (5-HT6)	Ki (A2B4)	Ki (A4B2)	Ki (Alpha2A)	Ki (Alpha2B)	Ki (CB2)	Ki (D1)	Ki (D2)	Ki (D4)	Ki (DOR)	Ki (GABAB)	Ki (H1)	Ki (M2)	Ki (MOR)	Ki (PBR)	Ki (Sigma1)	inhibition at 10 µM (Sigma1; 10 µM, quadruplicate, read-out: Sigma1 Primary Screen inhibition of binding)
CCNC1(c2cccc(OC)c2)CCCCC1=O (racemic) [Methoxetamine, (RS)-2-(ethylamino)-2-(3-methoxyphenyl)cyclohexanone]	> 10 µM	> 10 µM	> 10 µM	> 10 µM	> 10 µM	> 10 µM	> 10 µM	> 10 µM	> 10 µM	> 10 µM	> 10 µM	> 10 µM	> 10 µM	> 10 µM	2.96 µM	> 10 µM	> 10 µM	> 10 µM	> 10 µM	< 50%
COc1cccc(C2(N3CCCCC3)CCCCC2)c1 [3-MeO-PCP, 1-[1-(3-methoxyphenyl)cyclohexyl]piperidine]	> 10 µM	> 10 µM	> 10 µM	> 10 µM	> 10 µM	> 10 µM	0.964 µM	> 10 µM	> 10 µM	> 10 µM	> 10 µM	> 10 µM	> 10 µM	> 10 µM	> 10 µM	> 10 µM	> 10 µM	> 10 µM	0.042 µM	–
COc1ccc(C2(N3CCCCC3)CCCCC2)cc1 [4-MeO-PCP, 1-[1-(4-methoxyphenyl)cyclohexyl]piperidine]	> 10 µM	> 10 µM	> 10 µM	> 10 µM	> 10 µM	> 10 µM	> 10 µM	> 10 µM	> 10 µM	> 10 µM	> 10 µM	> 10 µM	> 10 µM	> 10 µM	> 10 µM	> 10 µM	> 10 µM	> 10 µM	0.296 µM	–
